Where two headings read alike, the source gives them in different places.
How the values were obtained:
[1] = target: T1, LRRK2^G2019S (Mus musculus, UniProt Q5S006, G2019S); assay: Western blot LRRK2 degradation in LRRK2^G2019S MEFs; type: cell-based; conditions: for Dmax: read-out: Dmax on G2019S MEFs
T1 construct: endogenous in cells; host or cells: LRRK2[G2019S] mouse embryonic fibroblasts (MEFs)
Method: (§1) The second-generation PROTACs were tested in parallel with the first generation PROTACs SD75, SD82, and SD100. The compounds were tested at 33 nM or […] concentrations for 4 hours or 24 hours, running two biological replicates per condition and achieving quantifications representative of both replicates. Analysis by quantitative immunoblotting was performed with readouts of the total LRRK2 (antibody recognizes epitope in C-terminus of protein), Rab10 pThr73 (physiological substrate) and LRRK2 pSer935 (biomarker phosphorylation site).
(§2) Primary MEFs were generated as described in a previous study (Wiggin et al., Mol. Cell Biol. 2002 April; 22(8):2871-81.). Briefly, the uterine horn was collected from adult female mice at day E12.5 and transferred to a 10 cm tissue culture dish containing cold PBS. Two forceps were used to tear the yolk sacs to isolate each embryo. Forceps were cleaned thoroughly with 70% ethanol between each embryo isolation. The embryos were culled, and a tissue piece was collected in a PCR tube for genotyping. The red tissue of the embryo, which grows to become the heart and liver, was removed. The remainder of the embryo was minced with a scalpel blade and incubated with 7.5 ml trypsin-EDTA solution for 10 minutes in a 37° C. tissue culture CO2 incubator. The dish was removed from the incubator and checked under a light microscope for single cells. 7.5 ml complete media was added to the trypsinised cells, and the cell suspension was transferred to a 15 ml Falcon tube, centrifuged at 1200 rpm for 5 minutes at room temperature. The trypsin was aspirated, the cell pellet was resuspended in 5 ml fresh complete media, and the cell suspension was plated in a 60 mm tissue culture dish and incubated in a 37° C., 5% CO2 tissue culture incubator. The MEFs at this stage were considered as passage 0 and were passaged and expanded for experimental use once the genotype was confirmed by allelic sequencing and immunoblotting. MEFs were cultured in Dulbecco's modified Eagle medium (DMEM) containing 10% (v/v) fetal bovine serum (FBS), 2 mM L-glutamine, 100 U/ml penicillin, and 100 μg/ml streptomycin supplemented with 1× non-essential amino acids and 1 mM sodium pyruvate.
Culturing and passaging of adherent cell lines were carried out using aseptic technique in CL1 or CL2 (for PBMC isolation) biological safety cabinets. All cells were incubated in a 37° C. incubator with 5% CO2. Cell lines were regularly tested for mycoplasma contamination. For western blot assay, the cells were seeded in 6-well plates. […] The cells were immediately placed on ice and were scraped and collected into 1.5 ml Eppendorf tubes. Cell lysates were incubated on ice for 10 minutes prior to centrifugation at 15,000 g at 4° C. for 15 minutes. The cell pellet was discarded, and supernatant was collected for analysis by quantitative immunoblotting. For long term storage, the supernatant was flash frozen and stored at −80° C. Protein concentrations of cell lysates were determined using the Bradford assay.
Cell lysates containing a quarter of a volume of 4× NuPAGE LDS sample buffer (NP0007) supplemented with 5% β-mercaptoethanol, were heated at 95° C. for 5 minutes. 15 to 20 μg of samples were loaded onto pre-cast 4-12% Bis-Tris midi 20W or 26W gels (Thermofisher Scientific®, Cat #WG1402BOX or WG1403BOX) and resolved at 130 V for 2 hours with NuPAGE MOPS SDS running buffer (Thermofisher Scientific® Cat #NP0001-02). Proteins were electrophoretically transferred onto a 0.45 μm nitrocellulose membrane (GE Healthcare, Amersham Protran® Supported 0.45 mm NC) at 90 V for 90 min on ice in transfer buffer (48 mM Tris base and 39 mM glycine supplemented with 20% methanol). The transferred membrane was blocked with 5% (w/v) skim milk powder dissolved in tris-buffered saline with tween (TBS-T) (50 mM Tris base, 150 mM sodium chloride (NaCl), 0.1% (v/v) Tween-20) at room temperature for 1 hour.

[2] = target: T2, LRRK2^WT (Mus musculus, UniProt Q5S006); assay: Western blot LRRK2 degradation in WT MEFs; type: cell-based; conditions: for Dmax: read-out: Dmax on WT MEFs
T2 construct: endogenous in cells; host or cells: primary wild-type mouse embryonic fibroblasts (MEFs)
T2 sequence (Q5S006 whole entry): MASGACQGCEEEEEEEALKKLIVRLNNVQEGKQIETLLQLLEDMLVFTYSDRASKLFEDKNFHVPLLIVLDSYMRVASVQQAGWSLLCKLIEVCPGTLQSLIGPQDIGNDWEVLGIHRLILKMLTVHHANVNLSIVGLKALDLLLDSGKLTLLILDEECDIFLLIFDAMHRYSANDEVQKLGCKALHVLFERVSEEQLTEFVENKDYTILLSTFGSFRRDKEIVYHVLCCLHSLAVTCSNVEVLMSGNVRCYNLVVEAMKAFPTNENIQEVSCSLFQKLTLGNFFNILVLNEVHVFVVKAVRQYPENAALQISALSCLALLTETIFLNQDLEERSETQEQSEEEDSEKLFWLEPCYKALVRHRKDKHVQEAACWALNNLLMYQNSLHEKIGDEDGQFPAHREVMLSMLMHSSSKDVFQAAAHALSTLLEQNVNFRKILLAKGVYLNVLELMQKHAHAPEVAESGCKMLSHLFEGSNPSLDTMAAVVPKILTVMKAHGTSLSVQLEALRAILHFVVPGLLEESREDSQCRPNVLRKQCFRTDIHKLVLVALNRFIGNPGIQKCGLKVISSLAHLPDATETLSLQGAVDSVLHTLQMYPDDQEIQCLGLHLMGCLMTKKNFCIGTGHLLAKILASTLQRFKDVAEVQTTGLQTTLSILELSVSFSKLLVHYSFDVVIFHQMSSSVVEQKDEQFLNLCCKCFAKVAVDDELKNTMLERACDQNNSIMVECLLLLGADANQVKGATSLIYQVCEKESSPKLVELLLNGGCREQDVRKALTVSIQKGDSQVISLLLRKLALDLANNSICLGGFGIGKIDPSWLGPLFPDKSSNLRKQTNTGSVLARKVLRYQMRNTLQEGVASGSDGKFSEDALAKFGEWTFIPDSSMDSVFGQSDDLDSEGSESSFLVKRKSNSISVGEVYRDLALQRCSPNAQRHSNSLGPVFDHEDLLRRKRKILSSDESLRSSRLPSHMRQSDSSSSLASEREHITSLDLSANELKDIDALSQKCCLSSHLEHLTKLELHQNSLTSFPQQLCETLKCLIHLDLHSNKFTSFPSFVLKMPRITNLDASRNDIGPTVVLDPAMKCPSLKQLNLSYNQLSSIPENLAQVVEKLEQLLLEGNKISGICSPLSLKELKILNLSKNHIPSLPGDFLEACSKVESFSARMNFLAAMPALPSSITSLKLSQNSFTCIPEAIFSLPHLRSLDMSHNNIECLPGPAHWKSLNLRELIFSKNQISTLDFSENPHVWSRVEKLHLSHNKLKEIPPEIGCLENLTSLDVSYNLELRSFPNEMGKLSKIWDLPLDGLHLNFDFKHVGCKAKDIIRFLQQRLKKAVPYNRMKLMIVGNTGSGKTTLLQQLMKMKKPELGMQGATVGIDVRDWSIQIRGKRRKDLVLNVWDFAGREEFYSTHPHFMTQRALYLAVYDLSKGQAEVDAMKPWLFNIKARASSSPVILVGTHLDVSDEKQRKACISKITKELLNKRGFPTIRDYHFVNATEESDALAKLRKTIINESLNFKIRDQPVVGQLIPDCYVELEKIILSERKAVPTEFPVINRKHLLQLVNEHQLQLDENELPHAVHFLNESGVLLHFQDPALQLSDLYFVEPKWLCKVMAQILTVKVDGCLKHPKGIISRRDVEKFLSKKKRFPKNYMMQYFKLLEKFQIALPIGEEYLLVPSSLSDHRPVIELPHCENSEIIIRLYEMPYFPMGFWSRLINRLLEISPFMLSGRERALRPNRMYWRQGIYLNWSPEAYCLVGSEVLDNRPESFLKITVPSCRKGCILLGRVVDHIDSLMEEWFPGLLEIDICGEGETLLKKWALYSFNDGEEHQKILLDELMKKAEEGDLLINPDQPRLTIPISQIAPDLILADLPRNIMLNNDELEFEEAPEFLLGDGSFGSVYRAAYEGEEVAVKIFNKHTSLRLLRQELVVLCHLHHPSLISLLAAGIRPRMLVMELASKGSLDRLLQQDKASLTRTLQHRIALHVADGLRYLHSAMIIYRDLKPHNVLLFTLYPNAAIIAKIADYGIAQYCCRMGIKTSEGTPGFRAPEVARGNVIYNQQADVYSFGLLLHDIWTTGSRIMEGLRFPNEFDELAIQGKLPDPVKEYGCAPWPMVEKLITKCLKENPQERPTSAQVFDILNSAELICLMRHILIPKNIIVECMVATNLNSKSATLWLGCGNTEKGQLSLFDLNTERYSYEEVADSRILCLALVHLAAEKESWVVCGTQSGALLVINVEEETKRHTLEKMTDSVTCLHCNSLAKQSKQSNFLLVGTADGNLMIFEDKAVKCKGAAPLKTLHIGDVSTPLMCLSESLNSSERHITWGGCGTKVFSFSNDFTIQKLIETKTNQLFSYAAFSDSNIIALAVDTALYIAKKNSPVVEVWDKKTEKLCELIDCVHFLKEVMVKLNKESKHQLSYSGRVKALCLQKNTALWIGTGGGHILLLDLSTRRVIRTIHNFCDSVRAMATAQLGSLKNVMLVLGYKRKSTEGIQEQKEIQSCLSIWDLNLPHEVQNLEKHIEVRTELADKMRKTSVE
Method: as §1, with “Western blot degradation assays for the LRRK2 protacs were performed with WT and PD-associated LRRK2 [G2019S] mouse embryonic fibroblasts (MEFs). The second-generation” for “The second-generation”
as §2
Culturing and passaging of adherent cell lines were carried out using aseptic technique in CL1 or CL2 (for PBMC isolation) biological safety cabinets. All cells were incubated in a 37° C. incubator with 5% CO2. Cell lines were regularly tested for mycoplasma contamination. For western blot assay, the cells were seeded in 6-well plates. After treating with testing compounds at indicated concentrations and time period, the media was removed and the cells were washed with PBS and lysed in 100 μl ice-cold complete lysis buffer containing 50 mM Tris-HCl pH 7.4, 1 mM EGTA, 10 mM 2-glycerophosphate, 50 mM sodium fluoride, 5 mM sodium pyrophosphate, 270 mM sucrose, supplemented with 1 μg/ml microcystin-LR, 1 mM sodium orthovanadate, complete EDTA-free protease inhibitor cocktail (Roche) and 1% (v/v) Triton X-100. The cells were immediately placed on ice and were scraped and collected into 1.5 ml Eppendorf tubes. Cell lysates were incubated on ice for 10 minutes prior to centrifugation at 15,000 g at 4° C. for 15 minutes. The cell pellet was discarded, and supernatant was collected for analysis by quantitative immunoblotting. For long term storage, the supernatant was flash frozen and stored at −80° C. Protein concentrations of cell lysates were determined using the Bradford assay.
Cell lysates containing a quarter of a volume of 4× NuPAGE LDS sample buffer (NP0007) supplemented with 5% β-mercaptoethanol, were heated at 95° C. for 5 minutes. […]

[3] = tested on: Rab10 pThr73; assay: Rab10 Thr73 dephosphorylation (immunoblot) in LRRK2^G2019S MEFs; type: cell-based, mouse; conditions: Mus musculus; for inhibition at 1 µM: read-out: pRab10 inhibited in LRRK2^G2019S MEFs; for EC50: dose response, 4 h treatment, read-out: G2019S MEFs-pRab10-dephosphorylation EC50
[4] = tested on: Rab10 pThr73; assay: as above; type: cell-based; conditions: Mus musculus, read-out: pRab10 inhibited in LRRK2^G2019S MEFs
[5] = tested on: Rab10 pThr73; assay: Rab10 Thr73 dephosphorylation (immunoblot) in WT MEFs; type: cell-based, mouse; conditions: Mus musculus; for inhibition at 0.033 µM / inhibition at 1 µM: read-out: pRab10 inhibited in WT MEFs; for EC50: dose response, 4 h treatment, read-out: WT MEFs pRab10-dephosphrylation EC50
Method in brief: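 Wild-type mouse embryonic fibroblasts in 6-well plates were treated with LRRK2 PROTACs, with two biological replicates per condition. Cells were washed in PBS and lysed on ice in buffer containing phosphatase and protease inhibitors plus 1% Triton X-100, then clarified at 15,000 g. Rab10 Thr73 phosphorylation was measured by quantitative immunoblotting of 15 to 20 μg protein on 4-12% Bis-Tris gels.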

T1 sequence (Q5S006 whole entry G2019S): as the sequence (Q5S006 whole entry) above, with G2019S counted along it

SMILES: CNc1nc(Nc2ccc(C(=O)N3CCN(C[C@H]4CC[C@H](CSC(C)(C)[C@H](NC(=O)C5(F)CC5)C(=O)N5C[C@H](O)CC5C(=O)N[C@@H](C)c5ccc(-c6scnc6C)cc5)CC4)CC3)cc2OC)ncc1Cl (stereo partly drawn) [XL02049, (2S,4R)-1-((R)-3-((((1R,4R)-4-((4-(4-((5-chloro-4-(methylamino)pyrimidin-2-yl)amino)-3-methoxybenzoyl)piperazin-1-yl)methyl)cyclohexyl)methyl)thio)-2-(1-fluorocyclopropane-1-carboxamido)-3-methylbutanoyl)-4-hydroxy-N—((S)-1-(4-(4-methylthiazol-5-yl)phenyl)ethyl)pyrrolidine-2-carboxamide]
- DC50 ([1]; dose response, 4 h treatment): 27 nM
- Dmax ([1]; dose response, 4 h treatment): 90%
- DC50 ([2]; dose response, 4 h treatment): 40 nM
- Dmax ([2]; dose response, 4 h treatment): 76.5%
- inhibition at 1 µM ([3]; 1 μM/4 h treatment): 10 to 100%
- inhibition at 1 µM ([3]; 1 μM/24 h treatment): 80 to 100%
- EC50 [3]: 31 nM
- inhibition at 0.033 µM ([4]; 33 nM/4 h treatment): 0 to 90%
- inhibition at 0.033 µM ([4]; 33 nM/24 h treatment): 30 to 90%
- inhibition at 0.033 µM ([5]; 33 nM/4 h treatment): 0 to 70%
- inhibition at 0.033 µM ([5]; 33 nM/24 h treatment): 0 to 80%
- inhibition at 1 µM ([5]; 1 μM/4 h treatment): 80 to 100%
- inhibition at 1 µM ([5]; 1 μM/24 h treatment): 80 to 100%
- EC50 [5]: 65 nM

SMILES: CNc1nc(Nc2ccc(C(=O)N3CCN(C[C@H]4CC[C@H](CSC(C)(C)[C@H](NC(=O)C5(F)CC5)C(=O)N5C[C@H](O)CC5C(=O)NCc5ccc(-c6scnc6C)cc5F)CC4)CC3)cc2OC)ncc1Cl (stereo partly drawn) [XL02047, (2S,4R)-1-(®-3-((((1r,4R)-4-((4-(4-((5-chloro-4-(methylamino)pyrimidin-2-yl)amino)-3-methoxybenzoyl)piperazin-1-yl)methyl)cyclohexyl)methyl)thio)-2-(1-fluorocyclopropane-1-carboxamido)-3-methylbutanoyl)-N-(2-fluoro-4-(4-methylthiazol-5-yl)benzyl)-4-hydroxypyrrolidine-2-carboxamide]
- DC50 ([1]; dose response, 4 h treatment): 60 nM
- Dmax ([1]; dose response, 4 h treatment): 79%
- DC50 ([2]; dose response, 4 h treatment): 45 nM
- Dmax ([2]; dose response, 4 h treatment): 78%
- inhibition at 1 µM ([3]; 1 μM/4 h treatment): 10 to 100%
- inhibition at 1 µM ([3]; 1 μM/24 h treatment): 80 to 100%
- EC50 [3]: 73 nM
- inhibition at 0.033 µM ([4]; 33 nM/4 h treatment): 0 to 90%
- inhibition at 0.033 µM ([4]; 33 nM/24 h treatment): 30 to 90%
- inhibition at 0.033 µM ([5]; 33 nM/4 h treatment): 0 to 70%
- inhibition at 0.033 µM ([5]; 33 nM/24 h treatment): 0 to 80%
- inhibition at 1 µM ([5]; 1 μM/4 h treatment): 80 to 100%
- inhibition at 1 µM ([5]; 1 μM/24 h treatment): 80 to 100%
- EC50 [5]: 228 nM

SMILES: CNc1nc(Nc2ccc(C(=O)N3CCN(C[C@H]4CC[C@@H](CSC(C)(C)[C@H](NC(=O)C5(F)CC5)C(=O)N5C[C@H](O)CC5C(=O)NCc5ccc(-c6scnc6C)cc5C)CC4)CC3)cc2OC)ncc1Cl (stereo partly drawn) [XL02059, (2S,4R)-1-((R)-3-((((1s,4S)-4-((4-(4-((5-chloro-4-(methylamino)pyrimidin-2-yl)amino)-3-methoxybenzoyl)piperazin-1-yl)methyl)cyclohexyl)methyl)thio)-2-(1-fluorocyclopropane-1-carboxamido)-3-methylbutanoyl)-4-hydroxy-N-(2-methyl-4-(4-methylthiazol-5-yl)benzyl)pyrrolidine-2-carboxamide]
- Dmax ([1]; dose response, 4 h treatment): 76%
- Dmax ([2]; dose response, 4 h treatment): 77.5%
- inhibition at 1 µM ([3]; 1 μM/4 h treatment): 10 to 100%
- inhibition at 1 µM ([3]; 1 μM/24 h treatment): 80 to 100%
- EC50 [3]: 55 nM
- inhibition at 0.033 µM ([4]; 33 nM/4 h treatment): 0 to 90%
- inhibition at 0.033 µM ([4]; 33 nM/24 h treatment): 30 to 90%
- inhibition at 0.033 µM ([5]; 33 nM/4 h treatment): 0 to 70%
- inhibition at 0.033 µM ([5]; 33 nM/24 h treatment): 0 to 80%
- inhibition at 1 µM ([5]; 1 μM/4 h treatment): 80 to 100%
- inhibition at 1 µM ([5]; 1 μM/24 h treatment): 80 to 100%
- EC50 [5]: 227 nM

SMILES: CNc1nc(Nc2ccc(C(=O)N3CCN(C[C@H]4CC[C@H](CSC(C)(C)[C@H](NC(=O)C5(F)CC5)C(=O)N5C[C@H](O)[C@H](F)C5C(=O)NCc5ccc(-c6scnc6C)cc5)CC4)CC3)cc2OC)ncc1Cl (stereo partly drawn) [XL02152, (2S,3R,4S)-1-((R)-3-((((1r,4R)-4-((4-(4-((5-chloro-4-(methylamino)pyrimidin-2-yl)amino)-3-methoxybenzoyl)piperazin-1-yl)methyl)cyclohexyl)methyl)thio)-2-(1-fluorocyclopropane-1-carboxamido)-3-methylbutanoyl)-3-fluoro-4-hydroxy-N-(4-(4-methylthiazol-5-yl)benzyl)pyrrolidine-2-carboxamide]
- DC50 ([1]; dose response, 4 h treatment): 44 nM
- Dmax [1]: 80%
- DC50 ([2]; dose response, 4 h treatment): 62 nM
- Dmax [2]: 68%
- inhibition at 1 µM ([3]; 1 μM/4 h treatment): 80 to 100%
- EC50 [3]: 63 nM
- inhibition at 0.033 µM ([4]; 33 nM/4 h treatment): 20 to 50%
- inhibition at 0.033 µM ([5]; 33 nM/4 h treatment): 20 to 40%
- inhibition at 1 µM ([5]; 1 μM/4 h treatment): 75 to 90%
- EC50 [5]: 144 nM

— US20260001875A1, “AMINOPYRIMIDINYL DERIVATIVES FOR THE TREATMENT OF PARKINSON'S DISEASE” (UNIVERSITY OF DUNDEE, priority 2022, published 2026)
